Experimental data from patent US11220504B2, “Pyrrolo[3,2-d] pyrimidine derivatives for the treatment of viral infections and other diseases” (JANSSEN SCIENCES IRELAND UNLIMITED COMPANY, priority 2012, dated 2022).

Key:
human TLR7 = target: T1, human TLR7 (Homo sapiens, UniProt Q9NYK1); assay: TLR7 cellular reporter assay (HEK293, NFκB-luc); assay type: cell-based; conditions: HEK293 cells transfected with CMV-TLR7 and NFκB-luc, 6 hours incubation; lowest effective concentration
T1 construct: expressed in transfected cells; host or cells: HEK293 cells, transient transfection with CMV-TLR7 plasmid and NFκB-luc plasmid
T1 sequence (Q9NYK1 27-1049): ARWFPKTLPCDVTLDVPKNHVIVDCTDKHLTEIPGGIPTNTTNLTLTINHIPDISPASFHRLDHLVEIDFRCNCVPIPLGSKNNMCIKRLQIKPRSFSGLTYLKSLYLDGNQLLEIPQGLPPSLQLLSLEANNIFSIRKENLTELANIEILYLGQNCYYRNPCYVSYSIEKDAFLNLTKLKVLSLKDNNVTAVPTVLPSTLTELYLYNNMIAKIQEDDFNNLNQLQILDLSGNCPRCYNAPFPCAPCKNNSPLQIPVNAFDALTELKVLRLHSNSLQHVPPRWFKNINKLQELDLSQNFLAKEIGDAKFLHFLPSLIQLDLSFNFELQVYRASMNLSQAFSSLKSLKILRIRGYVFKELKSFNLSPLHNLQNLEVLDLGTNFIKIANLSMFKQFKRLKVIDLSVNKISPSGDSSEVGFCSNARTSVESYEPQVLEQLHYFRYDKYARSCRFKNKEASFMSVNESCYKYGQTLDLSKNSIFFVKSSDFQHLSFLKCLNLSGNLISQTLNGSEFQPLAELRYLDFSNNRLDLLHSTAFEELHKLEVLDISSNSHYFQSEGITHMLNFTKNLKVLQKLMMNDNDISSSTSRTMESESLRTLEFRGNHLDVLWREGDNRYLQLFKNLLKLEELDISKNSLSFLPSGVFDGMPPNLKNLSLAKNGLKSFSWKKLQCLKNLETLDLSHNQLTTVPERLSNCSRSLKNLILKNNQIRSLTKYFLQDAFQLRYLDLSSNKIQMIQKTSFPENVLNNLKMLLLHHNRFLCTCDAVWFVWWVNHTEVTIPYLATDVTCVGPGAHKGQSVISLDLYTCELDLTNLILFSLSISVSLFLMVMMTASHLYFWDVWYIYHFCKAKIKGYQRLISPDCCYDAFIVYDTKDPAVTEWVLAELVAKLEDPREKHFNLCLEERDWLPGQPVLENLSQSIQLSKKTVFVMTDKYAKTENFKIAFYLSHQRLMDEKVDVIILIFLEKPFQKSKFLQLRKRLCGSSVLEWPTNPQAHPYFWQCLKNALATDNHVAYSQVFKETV
Summary of the method: (§1)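 HEK293 cells transiently transfected with receptor expression vector plus NFκB-luciferase reporter, exposed to compound (added in 4% DMSO) for 6 hours at 37° C, 5% CO2. Luciferase activity measured by luminescence; dose-response curves from quadruplicate measurements.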

human TLR8 = target: T2, human TLR8 (Homo sapiens, UniProt Q9NR97); assay: TLR8 cellular reporter assay (HEK293, NFκB-luc); assay type: cell-based; conditions: HEK293 cells transfected with CMV-TLR8 and NFκB-luc, 6 hours incubation; lowest effective concentration
T2 construct: expressed in transfected cells; host or cells: HEK293 cells, transient transfection with TLR8 plasmid and NFκB-luc plasmid
T2 sequence (Q9NR97 27-1041): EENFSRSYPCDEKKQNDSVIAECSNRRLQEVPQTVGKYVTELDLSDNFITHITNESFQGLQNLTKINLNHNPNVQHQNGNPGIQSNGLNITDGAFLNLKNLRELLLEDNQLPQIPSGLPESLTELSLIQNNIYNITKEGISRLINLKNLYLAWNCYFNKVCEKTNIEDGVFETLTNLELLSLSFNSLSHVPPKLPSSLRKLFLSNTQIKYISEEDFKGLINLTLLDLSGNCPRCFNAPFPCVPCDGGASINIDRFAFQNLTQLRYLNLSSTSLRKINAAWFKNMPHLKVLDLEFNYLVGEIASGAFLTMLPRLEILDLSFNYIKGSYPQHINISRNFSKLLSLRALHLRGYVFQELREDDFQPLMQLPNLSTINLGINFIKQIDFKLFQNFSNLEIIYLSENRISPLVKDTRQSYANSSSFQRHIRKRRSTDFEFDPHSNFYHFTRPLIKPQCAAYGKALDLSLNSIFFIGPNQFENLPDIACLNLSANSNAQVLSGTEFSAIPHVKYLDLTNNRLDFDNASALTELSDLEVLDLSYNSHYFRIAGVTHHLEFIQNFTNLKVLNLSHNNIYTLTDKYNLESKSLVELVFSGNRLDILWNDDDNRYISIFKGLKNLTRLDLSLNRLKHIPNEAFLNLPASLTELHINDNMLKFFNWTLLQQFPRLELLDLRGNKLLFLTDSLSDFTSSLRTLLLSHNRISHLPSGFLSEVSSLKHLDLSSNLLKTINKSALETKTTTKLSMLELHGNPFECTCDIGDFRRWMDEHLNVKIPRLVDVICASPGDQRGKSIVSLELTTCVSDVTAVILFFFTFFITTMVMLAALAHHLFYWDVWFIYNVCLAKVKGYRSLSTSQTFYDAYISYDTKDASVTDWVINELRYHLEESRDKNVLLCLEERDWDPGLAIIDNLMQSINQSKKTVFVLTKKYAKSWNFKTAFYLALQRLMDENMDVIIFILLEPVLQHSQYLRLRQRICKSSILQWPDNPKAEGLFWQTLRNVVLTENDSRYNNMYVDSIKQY
Summary of the method: as §1

[1] = test system: interferon-stimulated responsive elements (ISRE); assay: Activation of ISRE promoter elements by conditioned media from PBMC (HEK-ISREluc); assay type: cell-based, human; conditions: Homo sapiens; conditioned media from PBMC transferred to HEK-ISREluc cells, 24 hours; lowest effective concentration; read-out: PBMC LEC
Summary of the method: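 Human PBMCs (≥2 donors, RPMI + 10% human AB serum, 2×10^5 cells/well) incubated overnight with compound; supernatant transferred to HEK293 cells stably carrying pISRE-Luc for 24 h, then luciferase read. LEC = compound concentration on PBMCs giving luciferase signal at least two-fold above assay SD; recombinant IFN-α-2a standard.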

| SMILES | TLR7 LEC (human TLR7) [µM] | TLR8 LEC (human TLR8) [µM] | minimal effective concentration [1] [µM] |
| --- | --- | --- | --- |
| Cc1nc(CNc2nc(N)nc3ccn(Cc4ccccn4)c23)no1 [Compound 173] | 0.53 | >25 | 0.066 |
| Cc1ccc(Cn2ccc3nc(N)nc(NCc4cc(C)on4)c32)nc1 [Compound 175] | 0.02 | >25 | 0.009 |
| Cc1cc(CNc2nc(N)nc3ccn(Cc4cn(-c5ccccc5)nn4)c23)no1 [Compound 176] | 0.04 | >25 | 0.009 |
| Cc1nc(CNc2nc(N)nc3ccn(Cc4ccccn4)c23)c(C)o1 [Compound 177] | 8.67 | >25 | 3.93 |
| Cc1cc(CNc2nc(N)nc3ccn(Cc4cccc(F)n4)c23)no1 [Compound 178] | 0.15 | >25 | 0.014 |
| COc1ncccc1Cn1ccc2nc(N)nc(NCc3cc(C)on3)c21 [Compound 179] | 0.02 | >25 | 0.003 |
| COc1cc(OC)nc(Cn2ccc3nc(N)nc(NCc4cc(C)on4)c32)n1 [Compound 180] | 0.01 | >25 | 0.004 |
| Cc1cc(CNc2nc(N)nc3ccn(Cc4cc(C)on4)c23)no1 [Compound 181] | 0.06 | 20.2 | 0.015 |
| Cc1cc(CNc2nc(N)nc3ccn(Cc4cc5ccccc5cn4)c23)no1 [Compound 182] | 0.05 | >25 | 0.018 |
| Cc1cc(CNc2nc(N)nc3ccn(Cc4ccc5cccnc5n4)c23)no1 [Compound 183] | 0.59 | >25 | 0.009 |
| Cc1cc(CNc2nc(N)nc3ccn(Cc4ncccc4C)c23)no1 [Compound 185] | 0.07 | >25 | 0.018 |
| Cc1cc(CNc2nc(N)nc3ccn(Cc4ncccn4)c23)no1 [Compound 186] | 0.14 | >25 | 0.035 |
| Cc1cc(CNc2nc(N)nc3ccn(Cc4ccccn4)c23)nn1C [Compound 187] | 4.78 | >25 | 0.52 |
| Cn1cnc(CNc2nc(N)nc3ccn(Cc4ccccn4)c23)c1 [Compound 188] | 7.62 | >25 | 0.047 |
| Cc1cc(CNc2nc(N)nc3ccn(Cc4csc(C)n4)c23)no1 [Compound 192] | 0.07 | >25 | 0.03 |
| Cn1cc(CNc2nc(N)nc3ccn(Cc4ccccn4)c23)nn1 [Compound 193] | 11.3 | >25 | 0.447 |
| COc1cccnc1Cn1ccc2nc(N)nc(NCc3noc(C)n3)c21 [Compound 196] | 0.01 | 12.6 | 0.002 |
| Cc1nc(Cn2ccc3nc(N)nc(NC(C)c4ccccn4)c32)cs1 (stereo not drawn) [Compound 197] | 0.39 | >25 | 0.04 |
| CC(C)(O)CCNc1nc(N)nc2ccn(Cc3ccccn3)c12 [Compound 198] | 8.76 | >25 | 0.617 |
| COCCn1ccc2nc(N)nc(NCc3cc(C(C)C)on3)c21 [Compound 199] | 0.60 | 23.5 | 0.032 |
| COCCn1ccc2nc(N)nc(NCc3cc(C4CC4)on3)c21 [Compound 200] | 0.17 | 11.4 | 0.035 |
| COCCn1ccc2nc(N)nc(NC(C)c3cccnc3)c21 (stereo not drawn) [Compound 201] | 7.30 | >25 | 0.978 |
| COCCn1ccc2nc(N)nc(NCc3ccc(C)cn3)c21 [Compound 202] | 1.61 | >25 | 0.58 |
| Cc1nc(CNc2nc(N)nc3ccn(Cc4ncccn4)c23)no1 [Compound 203] | 1.04 | >25 | 0.138 |
| Cc1nc(CNc2nc(N)nc3ccn(Cc4cnccn4)c23)no1 [Compound 204] | 1.78 | >25 | 0.188 |
| COc1ccccc1Cn1ccc2nc(N)nc(NCc3noc(C)n3)c21 [Compound 205] | <0.01 | 7.7 | 0.001 |
| COC[C@H](C)Nc1nc(N)nc2ccn(Cc3csc(C)n3)c12 [Compound 206] | 0.74 | 15 | 0.129 |
| COCc1nc(CNc2nc(N)nc3ccn(Cc4ccccn4)c23)no1 [Compound 208] | 5.14 | >25 | 0.402 |
